Consider two molecules from ChEMBL document CHEMBL5226318, “Emerging Therapeutic Potential of SIRT6 Modulators” (J Med Chem, 2021).

This series can be described thus: Oral bioavailability in C57BL/6J mouse. The conditions noted are these: in vivo. Type of series: ADME, organism-based.

In turn, `COC(=O)c1cc(NS(=O)(=O)c2cc(Cl)cc(Cl)c2)ccc1S(=O)(=O)Nc1cc(Br)c(F)cc1C` displayed a bioavailability of 71.3%.
With `Cc1cc(F)c(Br)cc1NS(=O)(=O)c1ccc(NS(=O)(=O)c2cc(Cl)cc(Cl)c2)cc1CN1CCOC[C@H]1C` the figure was 93%.

As a reminder, the bioavailability is the share of a dose that reaches the circulation, judged against a reference dose that is usually intravenous. A low value points to poor availability.
